Assay results: patent US20250162989A1, “USP30 INHIBITORS AND USES THEREOF” (Vincere Biosciences, Inc., priority 2021, published 2025)

Tests used:
USP30 = USP30 (Homo sapiens (Human), UniProt Q70CQ3); assay: Dundee MALDI-TOF mass spectrometry assay (K48-linked diubiquitin cleavage); format: biochemical; conditions: USP30 25 ng/μl, K48-linked diubiquitin 5.6 μM, read-out: USP30 IC50 μM (avg)
Description: USP30 was diluted in a buffer containing 40 mM Tris, 0.01% BSA, 1 mM DTT and K48 in 40 mM Tris, 0.01% BSA.
The compounds were pre-incubated with the USP30 for 5 mins at room temp before the K48 dimer addition. The assay mixture was then incubated for 45 mins at room temp. The assay was stopped by the addition of TFA to a final concentration of 2% (v/v).
Acidified samples of the DUB assays were mixed with 0.5 mM 15N-ubiquitin and then with one part of 2% (v/v) TFA and one part of 2.5 DHAP matrix solution (7.6 mg of 2.5 DHAP in […] ethanol and […] of an aqueous 12 mg ml 1 diammonium hydrogen citrate).

[1] = target: recombinant USP30 (amino acids 57-517 of the human sequence) (Homo sapiens (Human), UniProt Q70CQ3); assay: In vitro USP30 biochemical assay (Ubiquitin-Rhodamine substrate); conditions: fluorescence
Description: In vitro biochemical assay to establish the potency of compounds for USP30 inhibition: a 384-well plate assay using a fluorophore tagged substrate of USP30 was used for in vitro screening of compounds. Each compound was tested at
10 different concentrations (0.5 to 10,000 nM) in duplicate wells. […] Data were analyzed using Graph Pad Prism software with a four-parameter (floating slope) fit to log concentration data to determine IC50s.

[2] = 1.5 nM recombinant USP30, 25 nM Ubiquitin-Rhodamine
[3] = […] recombinant USP30, 25 nM Ubiquitin-Rhodamine

Chain of recombinant USP30 (amino acids 57-517 of the human sequence) (Q70CQ3 57-517): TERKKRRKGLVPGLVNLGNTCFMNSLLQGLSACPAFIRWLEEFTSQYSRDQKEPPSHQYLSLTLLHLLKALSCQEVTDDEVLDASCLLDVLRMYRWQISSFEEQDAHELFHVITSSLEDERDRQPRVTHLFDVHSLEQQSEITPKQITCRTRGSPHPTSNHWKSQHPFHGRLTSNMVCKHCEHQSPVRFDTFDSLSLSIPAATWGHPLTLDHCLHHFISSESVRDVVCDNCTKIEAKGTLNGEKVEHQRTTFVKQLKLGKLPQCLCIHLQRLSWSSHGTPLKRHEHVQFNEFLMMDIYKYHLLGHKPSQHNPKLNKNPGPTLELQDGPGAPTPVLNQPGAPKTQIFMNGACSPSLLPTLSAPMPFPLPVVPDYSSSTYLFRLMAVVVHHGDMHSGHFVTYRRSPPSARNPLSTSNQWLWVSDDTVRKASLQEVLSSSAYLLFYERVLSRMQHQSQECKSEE
Chain of USP30 (Q70CQ3 whole entry): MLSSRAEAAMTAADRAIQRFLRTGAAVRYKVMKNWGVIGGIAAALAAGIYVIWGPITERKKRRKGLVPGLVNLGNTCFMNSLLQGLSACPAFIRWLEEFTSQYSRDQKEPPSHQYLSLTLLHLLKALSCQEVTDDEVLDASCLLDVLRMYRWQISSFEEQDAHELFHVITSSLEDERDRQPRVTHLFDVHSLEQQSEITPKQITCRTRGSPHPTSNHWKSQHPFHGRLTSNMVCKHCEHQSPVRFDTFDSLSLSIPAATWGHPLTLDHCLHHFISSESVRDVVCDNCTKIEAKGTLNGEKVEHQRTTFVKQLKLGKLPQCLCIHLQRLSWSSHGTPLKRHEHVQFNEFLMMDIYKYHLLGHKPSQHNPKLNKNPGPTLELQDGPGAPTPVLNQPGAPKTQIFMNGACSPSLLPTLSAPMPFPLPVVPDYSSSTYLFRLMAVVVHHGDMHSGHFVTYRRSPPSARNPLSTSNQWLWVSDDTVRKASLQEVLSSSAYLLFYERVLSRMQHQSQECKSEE

Row | IC50 (USP30) [µM] | IC50 [1, 2] [µM] | IC50 [1, 3] [µM] | Compound
1 | < 0.05 | 0.05 to 1 |  | COc1cc(NC(=O)[C@H](Cc2ccccc2)NC(=O)c2ccc(F)cc2)ccc1S(=O)(=O)N[C@H](C)CO [Compound I-137]
2 | < 0.05 | 0.05 to 1 |  | COc1cc(NC(=O)[C@H](Cc2ccccc2)NC(=O)c2ccc(F)cc2)ccc1S(=O)(=O)NC(C)(CO)CO [Compound I-138]
3 | < 0.05 | 0.05 to 1 |  | COc1cc(NC(=O)[C@H](Cc2ccccc2)NC(=O)c2ccc(F)cc2)ccc1S(=O)(=O)NC1(CO)CC1 [Compound I-141]
4 | < 0.05 |  | < 0.05 | CC(C)(C)NS(=O)(=O)c1ccc(NC(=O)C(CC2CCN(C=O)CC2)NC(=O)c2ccc(F)cc2)cc1 (stereo not drawn) [Compound I-145]
5 | 0.05 to 1 | 0.05 to 1 |  | CC(CO)(CO)NS(=O)(=O)c1ccc(NC(=O)[C@H](Cc2ccccc2)NC(=O)c2ccc(F)cc2)cn1 [Compound I-148]
6 | < 0.05 | 0.05 to 1 |  | O=C(N[C@@H](Cc1ccccc1)C(=O)Nc1ccc(S(=O)(=O)NC2(CO)CC2)nc1)c1ccc(F)cc1 [Compound I-150]
7 | < 0.05 | 0.05 to 1 |  | C[C@H](CO)NS(=O)(=O)c1ccc(NC(=O)[C@H](Cc2ccccc2)NC(=O)c2ccc(F)cc2)cn1 [Compound I-151]
8 | < 0.05 | 0.05 to 1 |  | COc1cc(NC(=O)[C@H](CC2CCNCC2)NC(=O)c2ccc(F)cc2)ccc1S(=O)(=O)NC(C)(C)C [Compound I-155]
9 | < 0.05 |  | < 0.05 | CC(=O)N1CCC(C[C@H](NC(=O)c2ccc(F)cc2)C(=O)Nc2ccc(S(=O)(=O)NC(C)(C)C)nc2)CC1 [Compound I-156]
10 | 0.05 to 1 | 0.05 to 1 |  | O=C(N[C@@H](CC1CCNCC1)C(=O)Nc1ccc(S(=O)(=O)NC2CCOCC2)cc1)c1ccc(F)cc1 [Compound I-157]
11 | < 0.05 |  | < 0.05 | CC(C)C(=O)N1CCC(C[C@H](NC(=O)c2ccc(F)cc2)C(=O)Nc2ccc(S(=O)(=O)NC(C)(C)C)cc2)CC1 [Compound I-161]
12 | < 0.05 |  | < 0.05 | CC(C)(C)NS(=O)(=O)c1ccc(NC(=O)[C@H](Cc2ccccc2)NC(=O)c2ccc(F)nc2)cc1 [Compound I-163]
13 | < 0.05 |  | < 0.05 | CC(C)(C)NS(=O)(=O)c1ccc(NC(=O)[C@H](CC2CCN(C#N)CC2)NC(=O)c2ccc(F)cc2)cc1 [Compound I-165]
14 | 0.05 to 1 | 0.05 to 1 |  | CC(C)(C)NS(=O)(=O)c1ccc(NC(=O)[C@H](Cc2ccccc2)NC(=O)c2ccon2)cc1 [Compound I-167]
15 | < 0.05 | 0.05 to 1 |  | CC(C)(C)NS(=O)(=O)c1ccc(NC(=O)[C@H](Cc2ccccc2)NC(=O)c2nccs2)cc1 [Compound I-168]
16 | < 0.05 |  | < 0.05 | COCCN1CCC(C[C@H](NC(=O)c2ccc(F)cc2)C(=O)Nc2ccc(S(=O)(=O)NC(C)(C)C)cc2)CC1 [Compound I-173]
17 | < 0.05 |  | < 0.05 | CC(C)(C)NS(=O)(=O)c1cccc2c(NC(=O)[C@H](Cc3ccccc3)NC(=O)c3ccc(F)nc3)cccc12 [Compound I-182]
18 | < 0.05 |  | < 0.05 | CN1CCC(C[C@H](NC(=O)c2ccc(F)cn2)C(=O)Nc2ccc(S(=O)(=O)NC(C)(C)C)cc2)CC1 [Compound I-185, (S)—N-(1-((4-(N-(tert-butyl)sulfamoyl)phenyl)amino)-3-(1-methylpiperidin-4-yl)-1-oxopropan-2-yl)-5-fluoropicolinamide]
19 | 0.05 to 1 | 0.05 to 1 |  | CC(C)(C)NS(=O)(=O)c1ccc(NC(=O)[C@H](CC2CCNCC2)NC(=O)c2ccc(F)nc2)cc1 [Compound I-186]
20 | < 0.05 |  | < 0.05 | CC(C)(C)NS(=O)(=O)c1ccc(NC(=O)[C@H](CC2CCOCC2)NC(=O)c2ccc(F)nc2)cc1 [Compound I-196]
21 | 0.05 to 1 | 0.05 to 1 |  | Cn1nccc1CNS(=O)(=O)c1ccc(NC(=O)[C@H](Cc2ccccc2)NC(=O)c2ccc(F)cc2)cc1 [Compound I-205]
22 | 0.05 to 1 | 0.05 to 1 |  | CC(C)(C)NS(=O)(=O)c1ccc(NC(=O)[C@H](CC2CCN(CCC(F)(F)F)CC2)NC(=O)c2ccc(F)cc2)cn1 [Compound I-208]
23 | 0.05 to 1 | 0.05 to 1 |  | CC(=O)O[C@@H]1C[C@@H](C(=O)Nc2ccc(S(=O)(=O)NC(C)(C)C)cc2)N(C(=O)c2ccc(F)cc2)C1 [Compound I-266]

Continued, molecule first:

Row | Compound | IC50 (USP30) [µM] | IC50 [1, 2] [µM] | IC50 [1, 3] [µM]
24 | COc1cc(NC(=O)[C@H](CC2CCN(C)CC2)NC(=O)c2ccc(F)cc2)ccc1S(=O)(=O)NC1CCOCC1 [Compound I-143] | 0.05 to 1 | 0.05 to 1 | 
25 | C[C@@H](CO)NS(=O)(=O)c1ccc(NC(=O)[C@H](Cc2ccccc2)NC(=O)c2ccc(F)cc2)cn1 [Compound I-149] | < 0.05 | 0.05 to 1 | 
26 | CN1CCC(C[C@H](NC(=O)c2ccc(F)cc2)C(=O)Nc2ccc(S(=O)(=O)NC(C)(C)C(F)(F)F)cc2)CC1 [Compound I-158] | < 0.05 | 0.05 to 1 | 
27 | COc1cc(NC(=O)[C@H](CC2CCNCC2)NC(=O)c2ccc(F)cc2)ccc1S(=O)(=O)NC(C)(C)CO [Compound I-159] | 0.05 to 1 | 0.05 to 1 | 
28 | COc1cc(NC(=O)[C@H](CC2CCN(C(C)=O)CC2)NC(=O)c2ccc(F)cc2)ccc1S(=O)(=O)NC(C)(C)C [Compound I-160] | < 0.05 |  | < 0.05
29 | CN1CCC(C[C@H](NC(=O)c2ccc(F)cc2)C(=O)Nc2ccc(S(=O)(=O)NC3CCOCC3)cc2)CC1 [Compound I-164] | < 0.05 | 0.05 to 1 | 
30 | CNCCN1CCC(C[C@H](NC(=O)c2ccc(F)cc2)C(=O)Nc2ccc(S(=O)(=O)NC(C)(C)C)cc2)CC1 [Compound I-171] | < 0.05 |  | < 0.05
31 | CC(=O)CN1CCC(C[C@H](NC(=O)c2ccc(F)cc2)C(=O)Nc2ccc(S(=O)(=O)NC(C)(C)C)cc2)CC1 [Compound I-172] | < 0.05 | 0.05 to 1 | 
32 | CC(C)(C)NS(=O)(=O)c1ccc(NC(=O)[C@H](Cc2ccccc2)NC(=O)C2CCOCC2)cc1 [Compound I-174] | 0.05 to 1 | 0.05 to 1 | 
33 | CC(C)(C)NS(=O)(=O)c1ccc(NC(=O)[C@H](CC2CCOCC2)NC(=O)c2ccc(F)cn2)cc1 [Compound I-177] | < 0.05 |  | < 0.05
34 | CC(C)(NS(=O)(=O)c1ccc(NC(=O)[C@H](CC2CCNCC2)NC(=O)c2ccc(F)cn2)cc1)C(F)(F)F [Compound I-199] | 0.05 to 1 | 0.05 to 1 | 
35 | O=C(N[C@@H](Cc1ccccc1)C(=O)Nc1ccc(S(=O)(=O)NC2(CF)CC2)cc1)c1ccc(F)cc1 [Compound I-200] | < 0.05 | 0.05 to 1 | 
36 | CC(C)(NS(=O)(=O)c1ccc(NC(=O)[C@H](Cc2ccccc2)NC(=O)c2ccc(F)cn2)cc1)C(F)(F)F [Compound I-201] | < 0.05 | 0.05 to 1 | 
37 | CN1CCC(C[C@H](NC(=O)c2ccc(F)cn2)C(=O)Nc2ccc(S(=O)(=O)NC(C)(C)C(F)(F)F)cc2)CC1 [Compound I-202] | < 0.05 |  | < 0.05
38 | COc1cc(NC(=O)[C@H](CC2CCNCC2)NC(=O)c2ccc(F)cc2)ccc1S(=O)(=O)NC(C)(C)CF [Compound I-209] | 0.05 to 1 | 0.05 to 1 | 
39 | Cn1cncc1CNS(=O)(=O)c1ccc(NC(=O)[C@H](Cc2ccccc2)NC(=O)c2ccc(F)cc2)cc1 [Compound I-227] | 0.05 to 1 | 0.05 to 1 | 
